Square brackets hold non-standard residues; d marks the D form. Peptide text beside a SMILES is read from it. * marks the point of attachment. Dolaproine = CO[C@@H]([C@@H]1CCCN1)[C@@H](C)C(=O)O; Dil = CC[C@H](C)[C@H](NC)[C@@H](CC(=O)O)OC; X1 = C[C@@H](N*)[C@@H](O)c1ccccc1; NMeV = CN[C@H](C(=O)O)C(C)C
Assays:
[1] = tested on: TMD8 cells; experiment: CellTiterGlo viability assay, SG3199 and MMAE combination, TMD8; assay type: cell-based; settings: for CI (combination index) / Fa (fraction affected): 24 hours
Description: We tested a combination of the warheads alone used in CD19xADC (PBD SG3199) and CD79bxADC (monomethyl auristatin E (MMAE)). This was performed essentially as per Example 1, in TMD8 cells. Cells were seeded at a density of 50,000 cells/mL. […]
Cells were incubated for 24 hours and then viability was measured with CellTiterGlo assay.
For analysis of the results, data were first blank corrected (average of blank of the 3 replicates was subtracted from each data value). For GraphPad analysis, each replicate was normalized over the untreated cells (average of the 3 replicates). Data were analysed by GraphPad Prism to generate a dose response curve with Log drug concentration on X-axis and cell viability (%) on Y-axis. For CalcuSyn analysis, the average of the 3 replicates was corrected over the untreated cells.

[2] = tested on: WSU-DLCL2 xenograft; experiment: In vivo efficacy, WSU-DLCL2 xenograft model; parameters: species or system mice
Description: Female severe combined immunodeficient mice (Fox Chase SCID®, CB17/Icr-Prkdc^scid/IcrIcoCrl, Charles River) were nine weeks old with a body weight (BW) range of 17.3 to 24.1 g on Day 1 of the study.
On the day of implant, 1×10^7 WSU-DLCL2 cells (0.1 mL suspension) were subcutaneously implanted into the right flank of each test animal and tumors were monitored as their volumes approached the target range.
Ten days after tumor implantation, designated as Day 1 of the study, the animals were sorted into groups (n=10) with individual tumor volumes of 88 to 126 mm^3 and group mean tumor volumes of 109 to 111 mm^3.
(§1) All vehicle and ADC doses were administered i.v. via tail vein injection once on Day 1 (qd×1). The dosing volume was 0.2 mL per 20 grams of body weight (10 mL/kg) and was scaled to the body weight of each individual animal.
(§2) Tumors were measured using calipers twice per week, and each animal was euthanized when its tumor reached the endpoint volume of 1000 mm^3 or at the end of the study, whichever came first. The study ended on Day 62.
Tumors were measured in two dimensions using calipers, and volume was calculated using the formula
Tumor Volume (mm^3)=w^2×l/2, where w=width and l=length, in mm, of the tumor.
Tumor weight may be estimated with the assumption that 1 mg is equivalent to 1 mm^3 of tumor volume.

[3] = tested on: Ramos xenograft; experiment: In vivo efficacy, Ramos xenograft model; parameters: species or system mice
Description: A further in vivo study was conducted, similar to Example 2 but using a Ramos xenograft model.
Female severe combined immunodeficient mice (Fox Chase SCID®, CB17/Icr-Prkdc^scid/IcrIcoCrl, Charles River) were eight weeks old with a body weight (BW) range of 15.6 to 22.9 g on Day 1 of the study.
as §1, with “On the day of implant, 1×10^7 Ramos cells (0.1 mL suspension) were subcutaneously implanted into the right flank of each test animal and tumors were monitored as their volumes approached the target range. All” for “All”
Fourteen days after tumor implantation, designated as Day 1 of the study, the animals were sorted into groups (n=10) with individual tumor volumes of 108 to 144 mm^3 and group mean tumor volumes of 130 to 134 mm^3.
as §2

[4] = SG3199 0.06 pM + MMAE 0.08 ng/ml
[5] = SG3199 0.06 pM + MMAE 0.2 ng/ml
[6] = SG3199 0.06 pM + MMAE 0.6 ng/ml
[7] = SG3199 0.06 pM + MMAE 1.9 ng/ml
[8] = SG3199 0.06 pM + MMAE 5.6 ng/ml
[9] = SG3199 0.23 pM + MMAE 0.08 ng/ml
[10] = SG3199 0.23 pM + MMAE 0.2 ng/ml
[11] = SG3199 0.23 pM + MMAE 0.6 ng/ml
[12] = SG3199 0.23 pM + MMAE 1.9 ng/ml
[13] = SG3199 0.23 pM + MMAE 5.6 ng/ml
[14] = SG3199 0.90 pM + MMAE 0.08 ng/ml
[15] = SG3199 0.90 pM + MMAE 0.2 ng/ml
[16] = SG3199 0.90 pM + MMAE 0.6 ng/ml
[17] = SG3199 0.90 pM + MMAE 1.9 ng/ml
[18] = SG3199 0.90 pM + MMAE 5.6 ng/ml
[19] = SG3199 3.6 pM + MMAE 0.08 ng/ml
[20] = SG3199 14.4 pM + MMAE 0.08 ng/ml
[21] = SG3199 14.4 pM + MMAE 0.2 ng/ml
[22] = SG3199 14.4 pM + MMAE 0.6 ng/ml
[23] = SG3199 14.4 pM + MMAE 1.9 ng/ml
[24] = SG3199 14.4 pM + MMAE 5.6 ng/ml
[25] = SG3199 57.5 pM + MMAE 0.08 ng/ml
[26] = SG3199 57.5 pM + MMAE 0.2 ng/ml
[27] = SG3199 57.5 pM + MMAE 0.6 ng/ml
[28] = SG3199 57.5 pM + MMAE 1.9 ng/ml
[29] = SG3199 57.5 pM + MMAE 5.6 ng/ml
[30] = SG3199 230 pM + MMAE 0.08 ng/ml
[31] = CD19xADC 0.25 mg/kg i.v. once on Day 1, n=10
[32] = CD19xADC 0.5 mg/kg i.v. once on Day 1, n=10
[33] = CD19xADC 0.3 mg/kg i.v. once on Day 1, n=10
[34] = CD19xADC 0.6 mg/kg i.v. once on Day 1, n=10

`CC[C@H](C)[C@@H]([C@@H](CC(=O)N1CCC[C@H]1[C@H](OC)[C@@H](C)C(=O)N[C@H](C)[C@@H](O)c1ccccc1)OC)N(C)C(=O)[C@@H](NC(=O)[C@@H](NC)C(C)C)C(C)C.COc1cc2c(cc1OCCCCCOc1cc3c(cc1OC)C(=O)N1C=C(C)C[C@H]1C=N3)N=C[C@@H]1CC(C)=CN1C2=O` [SG3199 + MMAE] (H-[NMeV]V[Dil][Dolaproine]-X1) was tested, and the “CI (combination index)” value [1, 4] was 1.65, the “Fa (fraction affected)” value [1, 4] was 0.12 and the “CI (combination index)” value [1, 5] was 2.06. The “Fa (fraction affected)” value [1, 5] was 0.13, the “CI (combination index)” value [1, 6] was 0.53 and the “Fa (fraction affected)” value [1, 6] was 0.27. The “CI (combination index)” value [1, 7] was 0.79, the “Fa (fraction affected)” value [1, 7] was 0.32 and the “CI (combination index)” value [1, 8] was 1.23. For the same compound, the “Fa (fraction affected)” value [1, 8] was 0.38, the “CI (combination index)” value [1, 9] was 434.19 and the “Fa (fraction affected)” value [1, 9] was 0.05. The “CI (combination index)” value [1, 10] was 2.22, the “Fa (fraction affected)” value [1, 10] was 0.14 and the “CI (combination index)” value [1, 11] was 0.40. The “Fa (fraction affected)” value [1, 11] was 0.29, the “CI (combination index)” value [1, 12] was 1.18 and the “Fa (fraction affected)” value [1, 12] was 0.29. The “CI (combination index)” value [1, 13] was 0.98, the “Fa (fraction affected)” value [1, 13] was 0.40 and the “CI (combination index)” value [1, 14] was 0.58. The “Fa (fraction affected)” value [1, 14] was 0.19, the “CI (combination index)” value [1, 15] was 2.08 and the “Fa (fraction affected)” value [1, 15] was 0.16. For the same compound, the “CI (combination index)” value [1, 16] was 0.29, the “Fa (fraction affected)” value [1, 16] was 0.31 and the “CI (combination index)” value [1, 17] was 0.83. The “Fa (fraction affected)” value [1, 17] was 0.32, the “CI (combination index)” value [1, 18] was 0.85 and the “Fa (fraction affected)” value [1, 18] was 0.41. The “CI (combination index)” value [1, 19] was 5.16, the “Fa (fraction affected)” value [1, 19] was 0.16 and the “CI (combination index)” value ([1]; SG3199 3.6 pM + MMAE 0.2 ng/ml) was 69.07. The “Fa (fraction affected)” value ([1]; SG3199 3.6 pM + MMAE 0.2 ng/ml) was 0.11, the “CI (combination index)” value ([1]; SG3199 3.6 pM + MMAE 0.6 ng/ml) was 1.26 and the “Fa (fraction affected)” value ([1]; SG3199 3.6 pM + MMAE 0.6 ng/ml) was 0.23. For the same compound, the “CI (combination index)” value ([1]; SG3199 3.6 pM + MMAE 1.9 ng/ml) was 1.36, the “Fa (fraction affected)” value ([1]; SG3199 3.6 pM + MMAE 1.9 ng/ml) was 0.28 and the “CI (combination index)” value ([1]; SG3199 3.6 pM + MMAE 5.6 ng/ml) was 1.93. For the same compound, the “Fa (fraction affected)” value ([1]; SG3199 3.6 pM + MMAE 5.6 ng/ml) was 0.34, the “CI (combination index)” value [1, 20] was 12.16 and the “Fa (fraction affected)” value [1, 20] was 0.17. For the same compound, the “CI (combination index)” value [1, 21] was 18.45, the “Fa (fraction affected)” value [1, 21] was 0.16 and the “CI (combination index)” value [1, 22] was 0.60. For the same compound, the “Fa (fraction affected)” value [1, 22] was 0.29, the “CI (combination index)” value [1, 23] was 1.32 and the “Fa (fraction affected)” value [1, 23] was 0.29. For the same compound, the “CI (combination index)” value [1, 24] was 1.12, the “Fa (fraction affected)” value [1, 24] was 0.39 and the “CI (combination index)” value [1, 25] was 0.22. For the same compound, the “Fa (fraction affected)” value [1, 25] was 0.34, the “CI (combination index)” value [1, 26] was 0.39 and the “Fa (fraction affected)” value [1, 26] was 0.33. The “CI (combination index)” value [1, 27] was 0.23, the “Fa (fraction affected)” value [1, 27] was 0.37 and the “CI (combination index)” value [1, 28] was 0.30. The “Fa (fraction affected)” value [1, 28] was 0.42, the “CI (combination index)” value [1, 29] was 0.37 and the “Fa (fraction affected)” value [1, 29] was 0.49. For the same compound, the “CI (combination index)” value [1, 30] was 0.03, the “Fa (fraction affected)” value [1, 30] was 0.47 and the “CI (combination index)” value ([1]; SG3199 230 pM + MMAE 0.2 ng/ml) was 0.02. The “Fa (fraction affected)” value ([1]; SG3199 230 pM + MMAE 0.2 ng/ml) was 0.51, the “CI (combination index)” value ([1]; SG3199 230 pM + MMAE 0.6 ng/ml) was 0.03 and the “Fa (fraction affected)” value ([1]; SG3199 230 pM + MMAE 0.6 ng/ml) was 0.54. For the same compound, the “CI (combination index)” value ([1]; SG3199 230 pM + MMAE 1.9 ng/ml) was 0.04, the “Fa (fraction affected)” value ([1]; SG3199 230 pM + MMAE 1.9 ng/ml) was 0.59 and the “CI (combination index)” value ([1]; SG3199 230 pM + MMAE 5.6 ng/ml) was 0.09. The “Fa (fraction affected)” value ([1]; SG3199 230 pM + MMAE 5.6 ng/ml) was 0.62 and the “median Chou-Talalay combination index (CI)” value ([1]; TMD8, 24 hours, <0.9 indicates synergy) was 0.85.

“CD19xADC: anti-CD19 ADC; Loncastuximab tesirine is the CD19xADC used” was tested, and the “CR (complete response)” value [2, 31] was 0, the “PR (partial response)” value [2, 31] was 3 and the “TFS (tumour free survivor)” value [2, 31] was 0. For the same compound, the “CR (complete response)” value [2, 32] was 5, the “PR (partial response)” value [2, 32] was 2 and the “TFS (tumour free survivor)” value [2, 32] was 3. For the same compound, the “CR (complete response)” value [3, 33] was 0, the “PR (partial response)” value [3, 33] was 0 and the “TFS (tumour free survivor)” value [3, 33] was 0. The “CR (complete response)” value [3, 34] was 7, the “PR (partial response)” value [3, 34] was 0 and the “TFS (tumour free survivor)” value [3, 34] was 7.

With `COc1cc2c(cc1OCCCCCOc1cc3c(cc1OC)C(=O)N1C=C(C)C[C@H]1C=N3)N=C[C@@H]1CC(C)=CN1C2=O` [SG3199, reference compound] the “Fa (fraction affected)” value ([1]; SG3199 0.06 pM alone (MMAE 0)) was 0.12, the “Fa (fraction affected)” value ([1]; SG3199 0.23 pM alone (MMAE 0)) was 0.16 and the “Fa (fraction affected)” value ([1]; SG3199 0.90 pM alone (MMAE 0)) was 0.15. The “Fa (fraction affected)” value ([1]; SG3199 3.6 pM alone (MMAE 0)) was 0.15, the “Fa (fraction affected)” value ([1]; SG3199 14.4 pM alone (MMAE 0)) was 0.19 and the “Fa (fraction affected)” value ([1]; SG3199 57.5 pM alone (MMAE 0)) was 0.23. For the same compound, the “Fa (fraction affected)” value ([1]; SG3199 230 pM alone (MMAE 0)) was 0.46.

For `CC[C@H](C)[C@@H]([C@@H](CC(=O)N1CCC[C@H]1[C@H](OC)[C@@H](C)C(=O)N[C@H](C)[C@@H](O)c1ccccc1)OC)N(C)C(=O)[C@@H](NC(=O)[C@@H](NC)C(C)C)C(C)C` [MMAE, monomethyl auristatin E, reference compound] (H-[NMeV]V[Dil][Dolaproine]-X1), the “Fa (fraction affected)” value ([1]; MMAE 0.08 ng/ml alone (SG3199 0)) was 0.11, the “Fa (fraction affected)” value ([1]; MMAE 0.2 ng/ml alone (SG3199 0)) was 0.17 and the “Fa (fraction affected)” value ([1]; MMAE 0.6 ng/ml alone (SG3199 0)) was 0.27. For the same compound, the “Fa (fraction affected)” value ([1]; MMAE 1.9 ng/ml alone (SG3199 0)) was 0.29 and the “Fa (fraction affected)” value ([1]; MMAE 5.6 ng/ml alone (SG3199 0)) was 0.38.
